From PubChem BioAssay AID434955 (Southern Research Specialized Biocontainment Screening …, 2010) come the findings set out here.

For the experiment, the system named is M. tuberculosis H37Rv growth with meropenem, percent inhibition. The experiment is described as follows: beta-lactam sensitization of Mtb H37Rv, H37Rv (AID 434955).
On to `Cc1cc(=S)nc(-c2ccccn2)[nH]1`, for which the IC90 was 19.7 µM.

As to `O=C(Nc1ccccc1)Nc1csc2ccccc12`, the IC90 was 20.9 µM.

Turning to `CCCCCCCN(C(=O)CCl)c1ccccc1C`, the IC90 was 35.2 µM.

`CCCn1nnnc1NC(=O)COc1ccc(Cl)cc1C`: the IC90 was 42.9 µM.

For the compound `CCN(CC(=O)Nc1ccc2c(c1)OCCO2)C(=O)c1ccc([N+](=O)[O-])s1`, the 90% effect concentration (IC90) is 26 µM.

Take `Cn1ccnc1C(=O)Cc1ccc([N+](=O)[O-])cc1`: the IC90 is 22.6 µM.

Consider `CC1(C)CCN2CCC(C)(C)c3c(O)ccc1c32`, for which the 90% effect concentration (IC90) was 49.3 µM.

In the case of `COc1cc(C(=S)N2CCOCC2)ccc1OC(=O)c1ccc([N+](=O)[O-])cc1[N+](=O)[O-]`, the IC90 was 5.92 µM.

Take `COCCCn1c(=O)/c(=C\c2ccccc2OC(C)C)s/c1=C(/C#N)C(=O)Nc1ccc(C(=O)O)cc1`: the IC90 is 18.5 µM.

`O=[N+]([O-])c1cc(Cl)cc(/C=N/NC(=S)Nc2cc(S(=O)(=O)N3CCOCC3)ccc2Cl)c1O`: the IC90 was 29.3 µM.

Regarding `CCCCNC(=O)c1onc(CSc2ccccc2CC)c1C(=O)O`, the IC90 was 23.7 µM.

For the compound `CCN(CC)c1ccc(CN2CCCCCC2)cc1`, the IC90 is 49.4 µM.

`COc1cc(/C=C/c2ccc3cccc([N+](=O)[O-])c3n2)ccc1OCC(=O)O`: the IC90 is 12 µM.

Take `O=C(c1ccc(-c2ccc(Cl)cc2)o1)N1CCN(S(=O)(=O)c2cccs2)CC1`: the IC90 is 99.6 µM.

Turning to `Cc1ccc(Nc2nc(N)nc(CC#N)n2)cc1`, the IC90 was 92.7 µM.

Turning to `CCCCN(C)Cc1cc(=O)oc2cc3c(cc12)CCCC3`, the concentration for an effect of 90% (IC90) was 82.2 µM.

As for `O=C(/C=C/c1ccc([N+](=O)[O-])cc1)c1cccs1`, the concentration for an effect of 90% (IC90) is 12.2 µM.

Turning to `COc1cccc(C(=O)C2CCCN(Cc3ccccn3)C2)c1` (stereo unspecified), the concentration for an effect of 90% (IC90) is 97.5 µM.

As to `Cc1cc(C)cc(SCc2noc(C(=O)NC(C)C)c2C(=O)O)c1`, the IC90 was 27.3 µM.

Take `COc1ccc(C(=O)NC(=S)Nc2ccc(S(=O)(=O)Nc3cc(C)on3)cc2)cc1OC`: the IC90 was 29 µM.

Turning to `O=C1OC(c2ccco2)=N/C1=C\c1ccc(-c2cccc(C(F)(F)F)c2)o1`, the IC90 is 53.4 µM.

Regarding `C=C1C(=O)O[C@@H]2[C@H]1[C@@H](OC(=O)/C(C)=C/C)C/C(C)=C\C(=O)/C=C(\C)[C@@H]2O`, the IC90 was 25.2 µM.

On to `O=C(CN1CCC(O)(c2ccc3c(c2)OCO3)CC1)OC1CCCCC1`, for which the IC90 was 35.3 µM.

In the case of `CN(C)/N=C/c1ccc(/C=N/NC(N)=S)o1`, the concentration for an effect of 90% (IC90) is 43.3 µM.

With `CC(C)CC(=O)N1CCN(c2ccc([N+](=O)[O-])c(NCc3ccccc3)c2)CC1`, the IC90 is 48.6 µM.

`COc1ccccc1N1CCN(CC(=O)Nc2cc(F)ccc2C)CC1`: the IC90 was 91 µM.

Regarding `CC(=O)c1ccc(OC(=O)N(c2ccccc2)c2ccccc2)cc1`, the IC90 was 32.9 µM.

As for `CC(O)/C=C/c1ccc2ccccc2n1` (stereo unspecified), the 90% effect concentration (IC90) was 57.5 µM.

Turning to `O=C1OC(/C=C/c2ccccc2)=NC/1=C/c1ccco1`, the IC90 is 13.9 µM.

Take `COc1ccc(-c2cc(=Nc3ccc(C)cc3)c3ccccc3o2)cc1`: the IC90 was 98.3 µM.

`Nc1ccc(N=Nc2ccccc2O)c(N)c1`: the IC90 was 34 µM.

For `Cc1ccc(C(=O)Nc2c(C)cc(C)c3cccnc23)cc1`, the concentration for an effect of 90% (IC90) was 10.5 µM.

Take `Cc1ccccc1OCC(=O)N/N=C/c1cccc(Oc2ccc([N+](=O)[O-])cc2[N+](=O)[O-])c1`: the IC90 was 5.4 µM.

On to `C=CCN=c1scc(-c2ccc(F)cc2)n1/N=C/c1ccccn1`, for which the IC90 is 71.7 µM.

As for `Cc1nnnn1/C(=C\c1ccccc1)C(=O)OCC(=O)Nc1ccc(Cl)cc1F`, the IC90 is 25.5 µM.

Regarding `Cc1cccc(-n2nc([N+](=O)[O-])c(=NC3CCN(Cc4ccccc4)CC3)n2O)c1`, the IC90 is 30.5 µM.

As for `Cc1[nH]n(-c2ccccc2)c(=O)c1/C=N/NC(=O)c1ccoc1C`, the IC90 was 3.01 µM.

With `C[C@H]1C=CC(=O)O[C@H]1c1ccccc1`, the 90% effect concentration (IC90) is 49.5 µM.

Turning to `CC(NC(=O)CSc1nc2ccccc2c(=O)[nH]1)c1ccccc1` (stereo unspecified), the IC90 is 60.9 µM.

As for `CCOc1ccc(S(=O)(=O)N(C(=O)c2ccco2)c2cc3sc(=O)oc3c3ccccc23)cc1`, the IC90 is 46.9 µM.

On to `Cc1noc(NS(=O)(=O)c2ccc(N/C=C\C(=O)c3ccc4c(c3)OCO4)cc2)c1C`, for which the 90% effect concentration (IC90) was 86 µM.

On to `O=C1C(Cl)=C(N2CCCCCC2)C(=O)N1c1ccc(Br)cc1`, for which the IC90 is 19.4 µM.

For `COC(=O)CNC(c1ccccc1Cl)c1cc(Br)ccc1NC(=O)CCN1CCOCC1` (stereo unspecified), the IC90 is 34.3 µM.

`S=C(NNc1ccc2ccccc2c1)NC1CCCCC1`: the IC90 was 41.3 µM.

Consider `Cc1cc(C)n(-c2nc3ccccc3c(=O)n2OCC(=O)N(C)C)n1`, for which the IC90 is 23.3 µM.

For `Cc1onc(-c2ccccc2Cl)c1C(=O)NCc1ccc2c(c1)cc(C)n2C`, the 90% effect concentration (IC90) is 29.4 µM.

With `CN(C)S(=O)(=O)c1ccc(C(=O)/C=C/c2cccnc2)cc1`, the concentration for an effect of 90% (IC90) is 12.1 µM.

For `Cc1nnnn1/C(=C\c1ccccc1)C(=O)OCC(=O)NC1CCCCC1`, the IC90 is 17.6 µM.

With `CCC(C)NCCOCCOc1ccc(Cl)c2ccccc12` (stereo unspecified), the IC90 is 50.7 µM.

For `Cc1nnc(SCC2=C(C(=O)O)N3C(=O)C(NC(=O)COc4ccc(F)cc4)C3SC2)s1` (stereo unspecified), the 90% effect concentration (IC90) is 9.33 µM.

As to `CCCCNC(=O)c1onc(CSc2ccccc2C)c1C(=O)O`, the 90% effect concentration (IC90) was 50.6 µM.

As to `C=CCSc1nc2c(c(-c3ccsc3)c1C#N)CN(C)CC2`, the IC90 was 55.1 µM.

Take `O=C(Nc1ccc2nc3n(c(=O)c2c1)CCCC3)c1cc([N+](=O)[O-])ccc1F`: the 90% effect concentration (IC90) was 91 µM.

As for `N#Cc1c(SCC(=O)O)nc(N2CCCCC2)c2c1CCCC2`, the 90% effect concentration (IC90) was 27 µM.

As for `C=CCNCCCOc1ccc(Cl)cc1C(C)(C)C`, the 90% effect concentration (IC90) is 52.6 µM.

For `CCOC(=O)c1nc(N2CCN(C(=O)OCC)CC2)c2c3c(sc2n1)CCCC3`, the IC90 is 40.9 µM.

`COc1cc(C(=O)Oc2cccnc2)cc(OC)c1OC`: the IC90 is 13.6 µM.

For the compound `CCOC(=O)C1CSC(CC(=O)Nc2ccc(Cl)c(Cl)c2)C(=O)N1` (stereo unspecified), the 90% effect concentration (IC90) was 35.4 µM.

As to `Cc1cc(C)c(OCC(=O)Nc2nc3ccccc3[nH]2)c(C)c1`, the concentration for an effect of 90% (IC90) is 65.2 µM.

For `O=C(CCN1CCOCC1)c1ccc(N2CCCCC2)cc1`, the IC90 is 72.7 µM.

For the compound `O=c1oc(-c2cccs2)nc2sc3c(c12)CCCC3`, the 90% effect concentration (IC90) was 29.7 µM.

For `C=CCc1cc(Cl)ccc1OCCCNC(C)CC` (stereo unspecified), the concentration for an effect of 90% (IC90) is 51.3 µM.

On to `CCOc1ccc2c(c1)c(C(C)=O)c(C)n2-c1ccccc1`, for which the IC90 was 1.96 µM.

Regarding `CC(C)(C)C1=Nn2c(nnc2-c2ccccc2F)SC1`, the IC90 was 78.3 µM.

With `CN(C)CCCN(C(=O)/C=C/c1cccs1)c1nc2ccc(F)cc2s1`, the concentration for an effect of 90% (IC90) was 48.4 µM.

As for `COc1cc(OC)cc(-c2cc3ccc(OC)cc3cn2)c1`, the IC90 is 76.9 µM.

For the compound `Cn1nnnc1Sc1ncnc2scc(-c3ccc(C(F)(F)F)cc3)c12`, the concentration for an effect of 90% (IC90) is 15 µM.

For `S=C(NN=C1C2CC3CC(C2)CC1C3)Nc1ccccc1`, the IC90 was 51.4 µM.

As to `Cc1cc(C=C2C(=O)NC(=S)NC2=O)c(C)n1-c1ccc2c(c1)OCO2`, the IC90 was 14.5 µM.

Take `Cc1cccc(C)c1OCC(=O)NNC(=O)CNC(=O)c1ccc(OC(F)F)cc1`: the IC90 is 98.1 µM.

Take `O=C(Nc1cccc(Cl)c1N1CCOCC1)c1ccc([N+](=O)[O-])o1`: the IC90 was 38.2 µM.

With `CN(C)C1=C(Cl)C(=O)N(c2ccc(Cl)c(Cl)c2)C1=O`, the concentration for an effect of 90% (IC90) is 14.9 µM.

As for `CC(C)(C)c1ccc(C(=O)Oc2ccc3c(c2)OCC3=O)cc1`, the IC90 is 29.4 µM.

`COc1ccc(C2(CNC(=O)c3cc([N+](=O)[O-])cc([N+](=O)[O-])c3)CCCC2)cc1OC`: the 90% effect concentration (IC90) is 1.61 µM.

On to `c1ccc(-n2c3ccccc3c3ccccc32)cc1`, for which the IC90 is 22.7 µM.

Consider `O=C1CS/C(=N/N=C2C3CC4CC(C3)CC2C4)N1`, for which the 90% effect concentration (IC90) is 13.8 µM.

`Nc1nc(Sc2ncccc2[N+](=O)[O-])n[nH]1`: the 90% effect concentration (IC90) was 77.1 µM.

As for `O=C(OCn1nnc2ccccc2c1=O)c1ccc2c(=O)n3c(nc2c1)CCC3`, the 90% effect concentration (IC90) is 26.1 µM.

In the case of `O=c1c2cc(Cl)ccc2[nH]c(=S)n1Cc1cccs1`, the 90% effect concentration (IC90) was 13.2 µM.

For the compound `O=C(Oc1c(-c2ccccc2)c(=O)n2c3c(cccc13)CC2)c1ccc(F)cc1`, the IC90 is 34 µM.

As for `Cc1cccc(Nc2nnc(SCC(=O)Nc3ncc(C(F)(F)F)cc3Cl)s2)c1C`, the concentration for an effect of 90% (IC90) is 21.5 µM.

For the compound `CCOC(=O)c1ccc(C(=O)NNC(=O)C2CC=CCC2)cc1` (stereo unspecified), the IC90 is 40 µM.

For `CCNC(=S)N/N=C1\C(=O)c2cccc3cccc1c23`, the IC90 is 7.61 µM.

In the case of `COCCSc1nc2sc3c(c2c(=O)n1-c1ccccc1)CCN(C)C3`, the IC90 was 53.3 µM.

Take `COCCNC(=S)N/N=C1\CC(C)CC(C)(C)C1` (stereo unspecified): the IC90 was 27.5 µM.

In the case of `CN1CCN(c2ccc(NC(=O)c3ccc(-c4cccc([N+](=O)[O-])c4)o3)cc2)CC1`, the concentration for an effect of 90% (IC90) is 6.71 µM.

On to `O=C(Nc1nc2ccccc2n1CCN1CCCC1)C1CCCCC1`, for which the 90% effect concentration (IC90) is 27.5 µM.

`Cc1cc(C(=O)CSc2nnnn2-c2ccccc2)c(C)n1-c1ccc2c(c1)OCO2`: the 90% effect concentration (IC90) was 60.9 µM.

For `COc1ccc2c(c1)c(C(C)=O)c(C)n2-c1ccccc1`, the IC90 was 6.92 µM.

As for `Cc1nn(-c2ccccc2)c(N2CCCC2)c1/C=C1\N=C(c2ccc(F)cc2)OC1=O`, the IC90 was 22.9 µM.

As to `Cc1cc(C)cc(OCC(=O)NNC(=O)c2ccccn2)c1`, the IC90 was 16 µM.

As to `COC(=O)c1sc(-c2ccc(C(C)(C)C)cc2)cc1NC(=O)CCC(=O)O`, the concentration for an effect of 90% (IC90) was 28.7 µM.

For `COc1ccc(-c2csc(NC(CO)c3nc4ccccc4n3Cc3ccc(C)cc3)n2)cc1` (stereo unspecified), the concentration for an effect of 90% (IC90) was 26.4 µM.

As for `COc1ccccc1-c1cc(C(=O)Nc2c(C)n(C)n(-c3ccccc3)c2=O)no1`, the concentration for an effect of 90% (IC90) is 19.5 µM.

For the compound `C/C(CC(=O)Nc1c(C)cc(C)cc1C)=N\NC(=O)c1cnccn1`, the concentration for an effect of 90% (IC90) is 17.4 µM.

Take `O=C1OC(/C=C/c2ccc(Cl)cc2Cl)=NC/1=C\c1cccs1`: the IC90 was 33.4 µM.

On to `O=C(NCC1COc2ccccc2O1)C1CCC(CNc2c(N3CCCCC3)c(=O)c2=O)CC1` (stereo unspecified), for which the IC90 is 26.7 µM.

As for `Cc1cc2ccccc2n1CCNC(=O)COc1ccccc1`, the IC90 was 42.8 µM.

Take `Cc1nn(-c2ccccc2)c(Cl)c1CN(C(=O)CCl)c1cccc2ccccc12`: the 90% effect concentration (IC90) is 48.2 µM.

In the case of `Cc1ccccc1NC(=O)/C(C#N)=C\c1cc(C)n(-c2ccc(C(=O)O)cc2)c1C`, the 90% effect concentration (IC90) was 51.1 µM.

Take `CC/C(=N\NC(=S)NC(C)C)c1ccc(OC)c(OC)c1`: the concentration for an effect of 90% (IC90) was 15.5 µM.

What is called IC90 is the concentration at which the effect reaches the 90% level.
